# Results published in PubChem BioAssay AID2060494 (Molecular Pharmacology Branch, DTP, NCI, 2025).
# pIC50: −log10 of the molar value.
# System: 435261-313-R-J1-PDC complex spheroid viability
# Experiment: Anticancer human tumor 435261-313-R-J1-PDC patient-derived colon adenocarcinoma cell line growth inhibition [GQUAD]
# Settings: for pIC50: curve of first compound; for viability, T/C: stronger effect = lower value
# Summary of the method: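 Viability of tumor cells grown as complex spheroids with endothelial and stromal cells, exposed to drug combinations. Top concentration at or near clinical Cmax (else 10 microM), diluted in half-log increments.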
# [1] = second compound 0.0316 µM, first compound 0.0316 µM
# [2] = second compound 0.0316 µM, first compound 0.316 µM
# [3] = second compound 0.1 µM, first compound 0.0316 µM
# [4] = second compound 0.1 µM, first compound 0.316 µM
# [5] = second compound 0.316 µM, first compound 0.0316 µM
# [6] = second compound 0.316 µM, first compound 0.316 µM
# [7] = second compound 1 µM, first compound 0.0316 µM
# [8] = second compound 1 µM, first compound 0.316 µM
# [9] = second compound 3.16 µM, first compound 0.0316 µM
# [10] = second compound 3.16 µM, first compound 0.316 µM
# [11] = second compound 10 µM, first compound 0.0316 µM
# [12] = second compound 10 µM, first compound 0.316 µM
# [13] = second compound 0.0316 µM, first compound 0.1 µM
# [14] = second compound 0.0316 µM, first compound 1 µM
# [15] = second compound 0.0316 µM, first compound 3.16 µM
# [16] = second compound 0.0316 µM, first compound 10 µM
# [17] = second compound 0.1 µM, first compound 0.1 µM
# [18] = second compound 0.1 µM, first compound 1 µM
# [19] = second compound 0.1 µM, first compound 3.16 µM
# [20] = second compound 0.1 µM, first compound 10 µM
# [21] = second compound 0.316 µM, first compound 0.1 µM
# [22] = second compound 0.316 µM, first compound 1 µM
# [23] = second compound 0.316 µM, first compound 3.16 µM
# [24] = second compound 0.316 µM, first compound 10 µM
# [25] = second compound 1 µM, first compound 0.1 µM
# [26] = second compound 1 µM, first compound 1 µM
# [27] = second compound 1 µM, first compound 3.16 µM
# [28] = second compound 1 µM, first compound 10 µM
# [29] = second compound 3.16 µM, first compound 0.1 µM
# [30] = second compound 3.16 µM, first compound 1 µM
# [31] = second compound 3.16 µM, first compound 3.16 µM
# [32] = second compound 3.16 µM, first compound 10 µM
# [33] = second compound 10 µM, first compound 0.1 µM
# [34] = second compound 10 µM, first compound 1 µM
# [35] = second compound 10 µM, first compound 3.16 µM
# [36] = second compound 10 µM, first compound 10 µM
# 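Also: spheroids exposed to the agents for seven days before readout.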
# 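For viability, T/C in this document: percent of vehicle control viability with DMSO wells as 100%.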
smiles,measurement,setting,value
CCc1c2c(nc3ccc(O)cc13)-c1cc3c(c(=O)n1C2)COC(=O)[C@]3(O)CC + Cc1[nH]c2ccc(F)cc2c1-c1nc2c3cccnc3c3ncccc3c2[nH]1,pIC50,second compound 0.0316 µM,7.67
same,pIC50,second compound 0.1 µM,7.63
same,pIC50,second compound 0.316 µM,7.62
same,pIC50,second compound 1 µM,> 9.00
same,pIC50,second compound 3.16 µM,> 9.00
same,pIC50,second compound 10 µM,> 9.00
same,"viability, T/C","second compound 0.0316 µM, first compound 0.000999 µM",119%
same,"viability, T/C","second compound 0.0316 µM, first compound 0.00316 µM",62.1%
same,"viability, T/C","second compound 0.0316 µM, first compound 0.00999 µM",67%
same,"viability, T/C",[1],46.7%
same,"viability, T/C","second compound 0.0316 µM, first compound 0.0999 µM",51.3%
same,"viability, T/C",[2],33.8%
same,"viability, T/C","second compound 0.1 µM, first compound 0.000999 µM",93.9%
same,"viability, T/C","second compound 0.1 µM, first compound 0.00316 µM",64.4%
same,"viability, T/C","second compound 0.1 µM, first compound 0.00999 µM",58.5%
same,"viability, T/C",[3],49.4%
same,"viability, T/C","second compound 0.1 µM, first compound 0.0999 µM",46.5%
same,"viability, T/C",[4],33.9%
same,"viability, T/C","second compound 0.316 µM, first compound 0.000999 µM",53.6%
same,"viability, T/C","second compound 0.316 µM, first compound 0.00316 µM",51.5%
same,"viability, T/C","second compound 0.316 µM, first compound 0.00999 µM",53.2%
same,"viability, T/C",[5],49.1%
same,"viability, T/C","second compound 0.316 µM, first compound 0.0999 µM",31.8%
same,"viability, T/C",[6],29.7%
same,"viability, T/C","second compound 1 µM, first compound 0.000999 µM",45.6%
same,"viability, T/C","second compound 1 µM, first compound 0.00316 µM",55.6%
same,"viability, T/C","second compound 1 µM, first compound 0.00999 µM",32.9%
same,"viability, T/C",[7],34%
same,"viability, T/C","second compound 1 µM, first compound 0.0999 µM",33.1%
same,"viability, T/C",[8],23.8%
same,"viability, T/C","second compound 3.16 µM, first compound 0.000999 µM",32.8%
same,"viability, T/C","second compound 3.16 µM, first compound 0.00316 µM",30.6%
same,"viability, T/C","second compound 3.16 µM, first compound 0.00999 µM",35.4%
same,"viability, T/C",[9],24%
same,"viability, T/C","second compound 3.16 µM, first compound 0.0999 µM",20.1%
same,"viability, T/C",[10],21.2%
same,"viability, T/C","second compound 10 µM, first compound 0.000999 µM",22.2%
same,"viability, T/C","second compound 10 µM, first compound 0.00316 µM",18.8%
same,"viability, T/C","second compound 10 µM, first compound 0.00999 µM",25.3%
same,"viability, T/C",[11],16.7%
same,"viability, T/C","second compound 10 µM, first compound 0.0999 µM",16.1%
same,"viability, T/C",[12],17.3%
Cc1cccc(N(C)C(=O)C2C(O)CCN2c2nc(C)cc(C(F)(F)F)c2C#N)c1 (stereo unspecified) + Cc1[nH]c2ccc(F)cc2c1-c1nc2c3cccnc3c3ncccc3c2[nH]1,pIC50,second compound 0.0316 µM,< 5.00
same,pIC50,second compound 0.1 µM,< 5.00
same,pIC50,second compound 0.316 µM,< 5.00
same,pIC50,second compound 1 µM,< 5.00
same,pIC50,second compound 3.16 µM,> 7.50
same,pIC50,second compound 10 µM,> 7.50
same,"viability, T/C",[1],123%
same,"viability, T/C",[13],111%
same,"viability, T/C",[2],121%
same,"viability, T/C",[14],91.4%
same,"viability, T/C",[15],97.2%
same,"viability, T/C",[16],92.3%
same,"viability, T/C",[3],106%
same,"viability, T/C",[17],141%
same,"viability, T/C",[4],138%
same,"viability, T/C",[18],135%
same,"viability, T/C",[19],117%
same,"viability, T/C",[20],113%
same,"viability, T/C",[5],76.1%
same,"viability, T/C",[21],105%
same,"viability, T/C",[6],104%
same,"viability, T/C",[22],104%
same,"viability, T/C",[23],117%
same,"viability, T/C",[24],115%
same,"viability, T/C",[7],95.2%
same,"viability, T/C",[25],86.7%
same,"viability, T/C",[8],152%
same,"viability, T/C",[26],129%
same,"viability, T/C",[27],117%
same,"viability, T/C",[28],59%
same,"viability, T/C",[9],30.2%
same,"viability, T/C",[29],41.4%
same,"viability, T/C",[10],38.5%
same,"viability, T/C",[30],44.9%
same,"viability, T/C",[31],47.7%
same,"viability, T/C",[32],42.9%
same,"viability, T/C",[11],27.1%
same,"viability, T/C",[33],27.7%
same,"viability, T/C",[12],33.7%
same,"viability, T/C",[34],27.1%
same,"viability, T/C",[35],28.7%
same,"viability, T/C",[36],23.5%
O=c1[nH]cc(F)c(=O)[nH]1 + Cc1[nH]c2ccc(F)cc2c1-c1nc2c3cccnc3c3ncccc3c2[nH]1,pIC50,second compound 0.0316 µM,< 5.00
same,pIC50,second compound 0.1 µM,< 5.00
same,pIC50,second compound 0.316 µM,< 5.00
same,pIC50,second compound 1 µM,6.33
same,pIC50,second compound 3.16 µM,> 7.50
same,pIC50,second compound 10 µM,> 7.50
same,"viability, T/C",[1],112%
same,"viability, T/C",[13],72.3%
same,"viability, T/C",[2],80.1%
same,"viability, T/C",[14],74.5%
same,"viability, T/C",[15],66.2%
same,"viability, T/C",[16],64.9%
same,"viability, T/C",[3],94.7%
same,"viability, T/C",[17],84.2%
same,"viability, T/C",[4],62%
same,"viability, T/C",[18],72.1%
same,"viability, T/C",[19],64.1%
same,"viability, T/C",[20],61.3%
same,"viability, T/C",[5],78.5%
same,"viability, T/C",[21],66.5%
same,"viability, T/C",[6],52.8%
same,"viability, T/C",[22],65.3%
same,"viability, T/C",[23],49.1%
same,"viability, T/C",[24],56%
same,"viability, T/C",[7],53.2%
same,"viability, T/C",[25],75%
same,"viability, T/C",[8],51.9%
same,"viability, T/C",[26],47.9%
same,"viability, T/C",[27],50.2%
same,"viability, T/C",[28],40.6%
same,"viability, T/C",[9],34.2%
same,"viability, T/C",[29],27.4%
same,"viability, T/C",[10],25.1%
same,"viability, T/C",[30],26.7%
same,"viability, T/C",[31],24.1%
same,"viability, T/C",[32],27.7%
same,"viability, T/C",[11],17.9%
same,"viability, T/C",[33],25.7%
same,"viability, T/C",[12],19%
same,"viability, T/C",[34],19.3%
same,"viability, T/C",[35],16.4%
same,"viability, T/C",[36],21.3%
